The values that follow come from patent US20260364030A1, “NOVEL SELECTIVE INHIBITORS OF LYSYL OXIDASES” (Syntara Limited, priority 2022, published 2026).

The target in one test is T1, LOXL2 (Homo sapiens, UniProt Q9Y4K0).
T1 sequence (Q9Y4K0 26-774): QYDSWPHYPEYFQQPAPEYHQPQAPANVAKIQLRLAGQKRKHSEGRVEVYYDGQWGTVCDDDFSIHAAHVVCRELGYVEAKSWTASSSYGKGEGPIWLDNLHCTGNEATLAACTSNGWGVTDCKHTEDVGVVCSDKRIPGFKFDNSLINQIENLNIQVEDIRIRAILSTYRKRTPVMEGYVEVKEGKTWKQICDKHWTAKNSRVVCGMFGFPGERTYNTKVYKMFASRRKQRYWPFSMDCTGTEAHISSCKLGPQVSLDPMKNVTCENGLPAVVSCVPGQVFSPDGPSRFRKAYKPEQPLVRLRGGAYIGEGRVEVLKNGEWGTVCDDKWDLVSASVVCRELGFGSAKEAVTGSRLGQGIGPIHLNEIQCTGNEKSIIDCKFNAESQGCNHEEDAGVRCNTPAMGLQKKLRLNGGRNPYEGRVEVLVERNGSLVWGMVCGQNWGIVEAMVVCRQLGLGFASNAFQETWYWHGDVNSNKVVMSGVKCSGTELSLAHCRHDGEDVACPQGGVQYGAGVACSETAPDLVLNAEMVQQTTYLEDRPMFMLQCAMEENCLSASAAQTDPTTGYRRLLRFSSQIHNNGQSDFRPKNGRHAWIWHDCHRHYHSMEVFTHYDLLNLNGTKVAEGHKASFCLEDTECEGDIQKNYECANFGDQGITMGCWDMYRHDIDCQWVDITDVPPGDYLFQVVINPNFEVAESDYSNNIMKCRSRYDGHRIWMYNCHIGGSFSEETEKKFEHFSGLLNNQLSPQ
Briefly: LOXL2 inhibition, Amplex Red oxidation assay. The format is biochemical. To be noted: 2 h incubation with enzyme at 37 °C; read-out: Human LOXL2 Activity IC50. On the procedure:
(§1) LOX and LOXL protein family members can be acquired as recombinant active proteins from commercial sources, or extracted from animal tissues like bovine aorta, tendons, pig skin; or prepared from cell cultures. The inhibitory effects of the compounds of the present invention were tested against the given LOX or LOXL preparation using a method based on the detection of hydrogen peroxide with an Amplex Red oxidation assay [Zhou et al, 1997]. The assay was developed using either 384 or 96 well format. Briefly, in a standard black, clear bottom 384 well plate assay 25 µL of a dilution of any of the isoenzymes and orthologues in 1.2 M urea, 50 mM sodium borate buffer (pH 8.2) were added into each well in the presence of […] and 0.5 mM pargyline (to inhibit SSAO and MAO-B and MAO-A, respectively; not necessary if the enzyme is from a recombinant or purified form). […] of a reaction mixture containing twice the KM concentration of putrescine (Sigma Aldrich, e.g. 20 mM for LOX and LOXL1 or 10 mM for LOXL2 and 4 mM for LOXL3 and LOXL4), 120 µM Amplex Red (Thermo Fisher Scientific) and 1.5 U/mL horseradish peroxidase (Sigma Aldrich) prepared in 1.2 M urea, 50 mM sodium borate buffer (pH 8.2) were then added to the corresponding wells. The above volumes were doubled in the case of 96 wells plate. The fluorescence (RFU) was read every 2.5 min for 30 min at 37 °C, excitation 544 nm and emission 590 (Optima; BMG labtech). The slope/min of the kinetics for each well was calculated using MARS data analysis software (BMG labtech) and this value was used to deduce the IC50 value (Dotmatics). The ability of the inventive compounds to inhibit the amine oxidase activity of LOX and other family members is shown in Table 5.

A further test concerns the target T2, Bovine LOX (Bos taurus, UniProt P33072).
T2 sequence (P33072 170-418): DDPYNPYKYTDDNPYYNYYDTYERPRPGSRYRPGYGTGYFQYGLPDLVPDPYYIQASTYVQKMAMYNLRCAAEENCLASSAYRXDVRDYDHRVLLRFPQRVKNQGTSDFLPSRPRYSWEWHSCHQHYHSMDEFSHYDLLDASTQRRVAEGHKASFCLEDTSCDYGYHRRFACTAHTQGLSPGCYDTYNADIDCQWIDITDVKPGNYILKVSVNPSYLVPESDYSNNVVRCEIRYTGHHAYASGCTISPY
Briefly: LOX inhibition, hydrogen peroxide Amplex Red oxidation assay. The format is biochemical. To be noted: 2 h incubation with enzyme at 37 °C. As for the experimental part:
as §1

In the case of `NC/C(=C/F)CS(=O)(=O)c1ccccc1` [Compound 37, (Z)-3-fluoro-2-((phenylsulfonyl)methyl)prop-2-en-1-amine], the concentration for half-maximal inhibition (IC50) on LOXL2 and against Bovine LOX was below 2 µM in each case.

With `NC/C(=C\F)CS(=O)(=O)c1cccc(Br)c1` [Compound 15, (E)-2-(((3-bromophenyl)sulfonyl)methyl)-3-fluoroprop-2-en-1-amine], the IC50 at LOXL2 and at Bovine LOX was below 2 µM throughout.

Consider `NC/C(=C\F)CS(=O)(=O)c1cccc2cccnc12` [Compound 7, (E)-3-fluoro-2-((quinolin-8-ylsulfonyl)methyl)prop-2-en-1-amine], for which the figures for the IC50 on LOXL2 and against Bovine LOX were below 2 µM and below 10 µM, respectively.

`NC/C(=C\F)CS(=O)(=O)c1cccc(CN2CCCCCC2=O)c1` [Compound 36, (E)-1-(3-((2-(aminomethyl)-3-fluoroallyl)sulfonyl)benzyl)azepan-2-one]: the IC50 on LOXL2 was below 5 µM; on Bovine LOX, below 10 µM.

For the molecule `N#Cc1ccc(S(=O)(=O)C/C(=C/F)CN)cc1` [Compound 28, (E)-4-((2-(aminomethyl)-3-fluoroallyl)sulfonyl)benzonitrile], the figures for the concentration for half-maximal inhibition (IC50) at LOXL2 and against Bovine LOX were below 2 µM and below 5 µM, respectively.

In the case of `Cc1ccn(-c2cccc(S(=O)(=O)C/C(=C/F)CN)c2)n1` [Compound 18, (E)-3-fluoro-2-(((3-(3-methyl-1H-pyrazol-1-yl)phenyl)sulfonyl)methyl)prop-2-en-1-amine], the IC50 on LOXL2 and at Bovine LOX was below 2 µM each time.

Regarding `NC/C(=C\F)CS(=O)(=O)c1cccc(-c2nccs2)c1` [Compound 16, (E)-3-fluoro-2-(((3-(thiazol-2-yl)phenyl)sulfonyl)methyl)prop-2-en-1-amine], the IC50 on LOXL2 and at Bovine LOX was below 2 µM throughout.

For `NC/C(=C\F)CS(=O)(=O)c1cccc(C(=O)O)c1` [Compound 26, (E)-3-((2-(aminomethyl)-3-fluoroallyl)sulfonyl)benzoic acid], the IC50 at LOXL2 was below 5 µM; against Bovine LOX it was below 10 µM.

As for `NC/C(=C\F)CS(=O)(=O)c1cc(Cl)ccc1Cl` [Compound 32, (E)-2-(((2,5-dichlorophenyl)sulfonyl)methyl)-3-fluoroprop-2-en-1-amine], the IC50 at LOXL2 and at Bovine LOX was below 2 µM each time.

Regarding `N#Cc1cccc(S(=O)(=O)C/C(=C/F)CN)c1` [Compound 2, (E)-3-((2-(aminomethyl)-3-fluoroallyl)sulfonyl)benzonitrile], the IC50 at LOXL2 and against Bovine LOX was below 2 µM in each case.

In the case of `COc1cccc(S(=O)(=O)C/C(=C/F)CN)c1` [Compound 24, (E)-3-fluoro-2-(((3-methoxyphenyl)sulfonyl)methyl)prop-2-en-1-amine], the IC50 at LOXL2 and at Bovine LOX was below 2 µM in each case.

In the case of `NC/C(=C\F)CS(=O)(=O)c1cccc(S(=O)(=O)c2ccccc2)c1` [Compound 14, (E)-3-fluoro-2-(((3-(phenylsulfonyl)phenyl)sulfonyl)methyl)prop-2-en-1-amine], the 50% inhibitory concentration (IC50) at LOXL2 and at Bovine LOX was below 2 µM in each case.

Turning to `NC/C(=C\F)CS(=O)(=O)c1ccc(C(=O)O)cc1` [Compound 31, (E)-4-((2-(aminomethyl)-3-fluoroallyl)sulfonyl)benzoic acid], the IC50 on LOXL2 and at Bovine LOX was below 10 µM in each case.

As for `Cc1ccccc1S(=O)(=O)C/C(=C/F)CN` [Compound 3, (E)-3-fluoro-2-((o-tolylsulfonyl)methyl)prop-2-en-1-amine], the half-inhibitory concentration (IC50) at LOXL2 is below 2 µM; on Bovine LOX it was below 5 µM.

Regarding `NC/C(=C\F)CS(=O)(=O)c1cccc(F)c1` [Compound 5, (E)-3-fluoro-2-(((3-fluorophenyl)sulfonyl)methyl)prop-2-en-1-amine], the IC50 on LOXL2 and on Bovine LOX was below 2 µM each time.

Regarding `NC/C(=C\F)CS(=O)(=O)c1cccc(C(N)=O)c1` [Compound 27, (E)-3-((2-(aminomethyl)-3-fluoroallyl)sulfonyl)benzamide], the IC50 on LOXL2 and against Bovine LOX was below 2 µM throughout.

As for `Cc1cccc(S(=O)(=O)C/C(=C/F)CN)c1` [Compound 20, (E)-3-fluoro-2-((m-tolylsulfonyl)methyl)prop-2-en-1-amine], the IC50 at LOXL2 and on Bovine LOX was below 2 µM in each case.

In the case of `CS(=O)(=O)c1ccc(S(=O)(=O)C/C(=C/F)CN)cc1` [Compound 21, (E)-3-fluoro-2-(((4-(methylsulfonyl)phenyl)sulfonyl)methyl)prop-2-en-1-amine], the IC50 on LOXL2 and on Bovine LOX was below 2 µM in each case.

Consider `NC/C(=C\F)CS(=O)(=O)c1ccc2ccccc2c1` [Compound 22, (E)-3-fluoro-2-((naphthalen-2-ylsulfonyl)methyl)prop-2-en-1-amine], for which the IC50 on LOXL2 and on Bovine LOX was below 2 µM throughout.

Turning to `NC/C(=C\F)CS(=O)(=O)c1ccc2c(c1)OCCO2` [Compound 25, (E)-2-(((2,3-dihydrobenzo[b][1,4]dioxin-6-yl)sulfonyl)methyl)-3-fluoroprop-2-en-1-amine], the IC50 on LOXL2 and against Bovine LOX was below 2 µM each time.

`Cc1ccc(S(=O)(=O)C/C(=C/F)CN)cc1` [Compound 4, (E)-3-fluoro-2-(tosylmethyl)prop-2-en-1-amine]: the IC50 was below 2 µM at LOXL2 and below 5 µM against Bovine LOX.

On to `Cc1ccc(S(=O)(=O)C/C(=C/F)CN)cc1C` [Compound 9, (E)-2-(((3,4-dimethylphenyl)sulfonyl)methyl)-3-fluoroprop-2-en-1-amine], for which the IC50 on LOXL2 and on Bovine LOX was below 2 µM each time.

For `NC/C(=C\F)CS(=O)(=O)c1cccc([N+](=O)[O-])c1` [Compound 13, (E)-3-fluoro-2-(((3-nitrophenyl)sulfonyl)methyl)prop-2-en-1-amine], the concentration for half-maximal inhibition (IC50) on LOXL2 and at Bovine LOX was below 2 µM throughout.

For the molecule `[2H]c1c([2H])c([2H])c(S(=O)(=O)C/C(=C/F)CN)c([2H])c1[2H]` [Compound 30, (E)-3-fluoro-2-(((phenyl-d5)sulfonyl)methyl)prop-2-en-1-amine], the half-inhibitory concentration (IC50) at LOXL2 and against Bovine LOX was below 5 µM in each case.

`N#Cc1ccccc1S(=O)(=O)C/C(=C/F)CN` [Compound 12, (E)-2-((2-(aminomethyl)-3-fluoroallyl)sulfonyl)benzonitrile]: the half-maximal inhibitory concentration (IC50) at LOXL2 and against Bovine LOX was below 5 µM each time.

With `NC/C(=C\F)CS(=O)(=O)c1cccc(C(F)(F)F)c1` [Compound 10, (E)-3-fluoro-2-(((3-(trifluoromethyl)phenyl)sulfonyl)methyl)prop-2-en-1-amine], the IC50 at LOXL2 and on Bovine LOX was below 2 µM each time.

Consider `Cc1ncc(-c2cccc(S(=O)(=O)C/C(=C/F)CN)c2)s1` [Compound 17, (E)-3-fluoro-2-(((3-(2-methylthiazol-5-yl)phenyl)sulfonyl)methyl)prop-2-en-1-amine], for which the IC50 on LOXL2 and on Bovine LOX was below 2 µM each time.

Turning to `NC/C(=C\F)CS(=O)(=O)c1ccccc1Cl` [Compound 6, (E)-2-(((2-chlorophenyl)sulfonyl)methyl)-3-fluoroprop-2-en-1-amine], the IC50 on LOXL2 and against Bovine LOX was below 5 µM in each case.

As for `NC/C(=C\F)CS(=O)(=O)c1cccc(-n2nccn2)c1` [Compound 34, (E)-2-(((3-(2H-1,2,3-triazol-2-yl)phenyl)sulfonyl)methyl)-3-fluoroprop-2-en-1-amine], the IC50 at Bovine LOX is below 5 µM.
